According to article PMC2997738 (2008):
Values belong to the molecule of their own block, whether it stands above or below them.

Columns and labels:
[1] = tested on: GdG-3 (RNA, riboswitch) GGACAUACAAUCGCGUGGAUAUGGCACGCAAGAUCCCGCCGGGCACCGUAAAUGUCCGACUAUGUCC; experiment: ITC; details: 100 mM KCl, 20 mM MgCl2; 50 mM K+-Hepes pH 7.5, 30 °C; apparent
[2] = tested on: Wild-type G-box B. subtilis xpt–pbuX (xpt) (RNA, riboswitch) GGACAUAUAAUCGCGUGGAUAUGGCACGCAAGUUUCUACCGGGCACCGUAAAUGUCCGACUAUGUCC; experiment: ITC; details: 100 mM KCl, 20 mM MgCl2; 50 mM K+-Hepes pH 7.5, 30 °C; apparent

KD,G [1]: 1200 ± 700 µM
SMILES: Nc1nc2[nH]cnc2c(=O)[nH]1

KD,rG [1]: 121 ± 8 µM
SMILES: Nc1nc2c(ncn2[C@@H]2O[C@H](CO)[C@@H](O)[C@H]2O)c(=O)[nH]1

KD,dG [2]: 12 ± 1 µM
KD,dG [1]: 39 ± 1 µM
SMILES: Nc1nc2c(ncn2[C@H]2C[C@H](O)[C@@H](CO)O2)c(=O)[nH]1
